Experimental data as given in ChEMBL document CHEMBL4396896, “N-Aminoacyl and N-hydroxyacyl derivatives of diosgenyl 2-amino-2-deoxy-β-d-glucopyranoside: Synthesis, antimicrobial and hemolytic activities” (Bioorg Med Chem, 2019).
In brackets after ≈: the same amount, converted by molar mass.

Columns and labels:
Proteus mirabilis = experiment: Antibacterial activity against Proteus mirabilis PCM 543 incubated in MHB II under aerobic condition for 18 hrs using initial inoculum of 5 x 10^5 CFU/ml by serial dilution method; type: functional; conditions: PCM 543, 18 h
Yarrowia lipolytica = experiment: Antifungal activity against Candida lipolytica PCM 2680 incubated in sabouraud liquid medium under aerobic condition for 48 hrs using initial inoculum of 10^3 CFU/ml by serial dilution method; type: functional; conditions: PCM 2680, 48 h
Enterococcus faecalis = experiment: Antibacterial activity against Enterococcus faecalis ATCC 29212 incubated in MHB II under aerobic condition for 18 hrs using initial inoculum of 5 x 10^5 CFU/ml by serial dilution method; type: functional; conditions: ATCC 29212, 18 h
Pseudomonas aeruginosa = experiment: Antibacterial activity against Pseudomonas aeruginosa ATCC 9027 incubated in MHB II under aerobic condition for 18 hrs using initial inoculum of 5 x 10^5 CFU/ml by serial dilution method; type: functional; conditions: ATCC 9027, 18 h
Candida albicans = experiment: Antifungal activity against Candida albicans ATCC 10231 incubated in sabouraud liquid medium under aerobic condition for 48 hrs using initial inoculum of 10^3 CFU/ml by serial dilution method; type: functional; conditions: ATCC 10231, 48 h
Escherichia coli = experiment: Antibacterial activity against Escherichia coli ATCC 25922 incubated in MHB II under aerobic condition for 18 hrs using initial inoculum of 5 x 10^5 CFU/ml by serial dilution method; type: functional; conditions: ATCC 25922, 18 h
Bacillus subtilis = experiment: Antibacterial activity against Bacillus subtilis ATCC 6633 incubated in MHB II under aerobic condition for 18 hrs using initial inoculum of 5 x 10^5 CFU/ml by serial dilution method; type: functional; conditions: ATCC 6633, 18 h
[1] = tested on: Staphylococcus epidermidis; experiment: Antibacterial activity against Staphylococcus epidermidis PCM 2118 incubated in MHB II under aerobic condition for 18 hrs using initial inoculum of 5 x 10^5 CFU/ml by serial dilution method; type: functional; conditions: PCM 2118, 18 h
Staphylococcus aureus = experiment: Antibacterial activity against Staphylococcus aureus ATCC 25923 incubated in MHB II under aerobic condition for 18 hrs using initial inoculum of 5 x 10^5 CFU/ml by serial dilution method; type: functional; conditions: ATCC 25923, 18 h
[2] = Haemolytic activity in human erythrocytes assessed as haemolytic index by measuring hemoglobin release at 0.5 to 128 mg/L incubated for 1 hr by microplate spectrophotometry relative to control; type: ADME, cell-based, Erythrocyte; conditions: human erythrocytes, read-out: HI
Klebsiella pneumoniae = experiment: Antibacterial activity against Klebsiella pneumoniae ATCC 700603 incubated in MHB II under aerobic condition for 18 hrs using initial inoculum of 5 x 10^5 CFU/ml by serial dilution method; type: functional; conditions: ATCC 700603, 18 h

Structure (SMILES) | MIC (Proteus mirabilis) [µg/mL] | MIC (Yarrowia lipolytica) [µg/mL] | MIC (Enterococcus faecalis) [µg/mL] | MIC (Pseudomonas aeruginosa) [µg/mL] | MIC (Candida albicans) [µg/mL] | MIC (Escherichia coli) [µg/mL] | MIC (Bacillus subtilis) [µg/mL] | MIC [1] [µg/mL] | MIC (Staphylococcus aureus) [µg/mL] | hemolysis at 1 h [2] [%] | MIC (Klebsiella pneumoniae) [µg/mL]
CNCC(=O)N[C@H]1[C@H](O[C@H]2CC[C@@]3(C)C(=CC[C@H]4[C@@H]5C[C@@H]6O[C@]7(CC[C@@H](C)CO7)[C@@H](C)[C@@H]6[C@@]5(C)CC[C@@H]43)C2)O[C@H](CO)[C@@H](O)[C@@H]1O | > 128 | 4 (≈ 6.18 µM) | 4 (≈ 6.18 µM) | > 128 | 4 (≈ 6.18 µM) | > 128 | 4 (≈ 6.18 µM) | 4 (≈ 6.18 µM) | 4 (≈ 6.18 µM) | < 10 | > 128
C[C@@H]1CC[C@@]2(OC1)O[C@H]1C[C@H]3[C@@H]4CC=C5C[C@@H](O[C@@H]6O[C@H](CO)[C@@H](O)[C@H](O)[C@H]6NC(=O)[C@H](C)O)CC[C@]5(C)[C@H]4CC[C@]3(C)[C@H]1[C@@H]2C | > 128 | > 128 | > 128 | > 128 | > 128 | > 128 | > 128 | > 128 | > 128 | < 10 | > 128
CC(=O)NCC(=O)N[C@H]1[C@H](O[C@H]2CC[C@@]3(C)C(=CC[C@H]4[C@@H]5C[C@@H]6O[C@]7(CC[C@@H](C)CO7)[C@@H](C)[C@@H]6[C@@]5(C)CC[C@@H]43)C2)O[C@H](CO)[C@@H](O)[C@@H]1O | > 128 | > 128 | > 128 | > 128 | > 128 | > 128 | > 128 | > 128 | > 128 | < 10 | > 128
CSCC[C@H](N)C(=O)N[C@H]1[C@H](O[C@H]2CC[C@@]3(C)C(=CC[C@H]4[C@@H]5C[C@@H]6O[C@]7(CC[C@@H](C)CO7)[C@@H](C)[C@@H]6[C@@]5(C)CC[C@@H]43)C2)O[C@H](CO)[C@@H](O)[C@@H]1O | > 128 |  | 4 (≈ 5.66 µM) | > 128 |  | > 128 | > 128 | 4 (≈ 5.66 µM) | > 128 | < 4 | > 128
C[C@@H]1CC[C@@]2(OC1)O[C@H]1C[C@H]3[C@@H]4CC=C5C[C@@H](O[C@@H]6O[C@H](CO)[C@@H](O)[C@H](O)[C@H]6NC(=O)CO)CC[C@]5(C)[C@H]4CC[C@]3(C)[C@H]1[C@@H]2C | > 128 | > 128 | > 128 | > 128 | > 128 | > 128 | > 128 | > 128 | > 128 | < 10 | > 128
CC(=O)N[C@H]1[C@H](O[C@H]2CC[C@@]3(C)C(=CC[C@H]4[C@@H]5C[C@@H]6O[C@]7(CC[C@@H](C)CO7)[C@@H](C)[C@@H]6[C@@]5(C)CC[C@@H]43)C2)O[C@H](CO)[C@@H](O)[C@@H]1O | > 128 |  | > 128 | > 128 | > 128 | > 128 | > 128 | > 128 | > 128 |  | > 128
C[C@@H]1CC[C@@]2(OC1)O[C@H]1C[C@H]3[C@@H]4CC=C5C[C@@H](O[C@@H]6O[C@H](CO)[C@@H](O)[C@H](O)[C@H]6NC(=O)C(F)(F)F)CC[C@]5(C)[C@H]4CC[C@]3(C)[C@H]1[C@@H]2C | > 128 |  | > 128 | > 128 | > 128 | > 128 | > 128 | > 128 | > 128 |  | > 128
